# Article PMC12101465, “Synthesis and anti-mycobacterial activity of novel medium-chain β-lactone derivatives: a multi-target strategy to combat Mycobacterium abscessus” (RSC Medicinal Chemistry, 2025)
# Experiment: in vitro
# Design: resazurin reduction viability assay, fluorescence, cytotoxicity on murine macrophages
# Conditions: mouse, raw macrophages; read-out: CC50 (µg/mL) Raw264.7
# Description: The cytotoxicity of the new synthesized β-lactone analogs against eukaryotic cells was measured based on the reduction of resazurin as a value of cellular viability by metabolic activity, as previously described.[45,54,55] Murine (Raw264.7) macrophages (American Type Culture Collection TIB-71) were incubated with two-fold dilution of each compound for 24 h at 37 °C and 5% CO2. Then, 20 μL of a 0.025% (w/v) resazurin solution was added to each well, and fluorescence was measured following a 4 h incubation as described above. The compound concentration leading to 50% macrophage cell death was defined as the CC50.[28,29,56] All experiments were performed as three independent biological replicates. See ESI ^† for detailed protocol. 3.5. Cell toxicity of beta-lactone derivatives
row,SMILES,CC50 at 24 h
1,"CCCCCCCCC1(F)C(=O)OC1CCC (mixture of isomers) [VM043, 3-Fluoro-3-octyl-4-propyloxetan-2-one]",> 125 µg/mL
2,"CCCCCCCC/C=C\CCCCCC[C@@H]1C(=O)O[C@H]1CC (racemic) [VM017, (±)-trans (Z)-4-Ethyl-3-(hexadec-7-en-1-yl)oxetan-2-one]",> 125 µg/mL
3,"CCCCCCCC/C=C\CCCCCC[C@@H]1C(=O)O[C@@H]1CC (racemic) [VM018, (±)-cis (Z)-4-Ethyl-3-(hexadec-7-en-1-yl)oxetan-2-one]",> 125 µg/mL
4,"CCCCCC[C@@H]1C(=O)O[C@H]1CCC (racemic) [VM019, (±)-trans 3-Hexyl-4-propyloxetan-2-one]",> 125 µg/mL
5,"CCCCCCCC/C=C\CCCCCC[C@@H]1C(=O)O[C@H]1CCCCCCCCC (racemic) [VM021, (±)-trans (Z)-3-(Hexadec-7-en-1-yl)-4-nonyloxetan-2-one]",> 125 µg/mL
6,"CCCCCCCC/C=C\CCCCCC[C@@H]1C(=O)O[C@H]1CCCCCC (racemic) [VM022, (±)-trans (Z)-3-(Hexadec-7-en-1-yl)-4-hexyloxetan-2-one]",> 125 µg/mL
7,"CCCCCCCC/C=C\CCCCCC[C@@H]1C(=O)O[C@@H]1CCCCCCCCC (racemic) [VM023, (±)-cis (Z)-3-(Hexadec-7-en-1-yl)-4-nonyloxetan-2-one]",> 125 µg/mL
8,"CCCCCCCC/C=C\CCCCCC[C@@H]1C(=O)O[C@@H]1CCCCCC (racemic) [VM024, (±)-cis (Z)-3-(Hexadec-7-en-1-yl)-4-hexyloxetan-2-one]",> 125 µg/mL
9,"CCCCCCCCCC[C@@H]1C(=O)O[C@H]1CCC (racemic) [VM026, (±)-trans 3-Decyl-4-propyloxetan-2-one]",> 125 µg/mL
10,"CCCCCCCCCC[C@@H]1C(=O)O[C@@H]1CCC (racemic) [VM027, (±)-cis 3-Decyl-4-propyloxetan-2-one]",> 125 µg/mL
11,"CCCCCCCC/C=C\CCCCCCCC[C@@H]1C(=O)O[C@H]1CCC (racemic) [VM029, (±)-trans (Z)-3-(Octadec-9-en-1-yl)-4-propyloxetan-2-one]",> 125 µg/mL
12,"CCCCCCCC/C=C\CCCCCCCC[C@@H]1C(=O)O[C@@H]1CCC (racemic) [VM030, (±)-cis (Z)-3-(Octadec-9-en-1-yl)-4-propyloxetan-2-one]",> 125 µg/mL
13,"CCCCCCCC/C=C\CCCCCCC[C@@H]1OC(=O)[C@H]1CCC (racemic) [VM036, (±)-trans 4-((Z)-Heptadec-8-en-1-yl)-3-propyloxetan-2-one]",> 125 µg/mL
14,"CCCCCCCC/C=C\CCCCCCC[C@H]1OC(=O)[C@H]1CCC (racemic) [VM037, (±)-cis 4-((Z)-Heptadec-8-en-1-yl)-3-propyloxetan-2-one]",> 125 µg/mL
15,"CCCCCCCC[C@@H]1C(=O)O[C@H]1CCC (racemic) [VM038, (±)-trans 3-Octyl-4-propyloxetan-2-one]",> 125 µg/mL
16,"CCCCCCCC[C@@H]1C(=O)O[C@@H]1CCC (racemic) [VM039, (±)-cis 3-Octyl-4-propyloxetan-2-one]",119 ± 4 µg/mL
17,"CCCCCCCCCCCC[C@@H]1C(=O)O[C@H]1CCC (racemic) [VM040, (±)-trans 3-Dodecyl-4-propyloxetan-2-one]",> 125 µg/mL
18,"CCCCCCCCCCCC[C@@H]1C(=O)O[C@@H]1CCC (racemic) [VM041, (±)-cis 3-Dodecyl-4-propyloxetan-2-one]",> 125 µg/mL
19,"C#CCCC[C@@H]1C(=O)O[C@H]1CCC (racemic) [VM050p, (±)-trans 3-(Pent-4-yn-1-yl)-4-propyloxetan-2-one]",44.1 ± 2.4 µg/mL

row,SMILES,CC50 at 24 h
1,"C#CCCCCCCC[C@@H]1C(=O)O[C@H]1CCC (racemic) [VM052p, (±)-trans 3-(Non-8-yn-1-yl)-4-propyloxetan-2-one]",> 125 µg/mL
2,"C#CCCCCCC[C@@H]1C(=O)O[C@H]1CCC (racemic) [VM053p, (±)-trans 3-(Oct-7-yn-1-yl)-4-propyloxetan-2-one]",> 125 µg/mL
3,"CCC[C@@H]1OC(=O)[C@H]1CCCCCCCCN=[N+]=[N-] (racemic) [VM055p, (±)-trans 3-(8-Azidooctyl)-4-propyloxetan-2-one]",> 125 µg/mL
4,"CCCCCCCC[C@@H]1C(=O)N[C@H]1CCC (racemic) [VM057, (±)-trans 3-Octyl-4-propylazetidin-2-one]",52.7 ± 1.1 µg/mL
5,"CCCCCCCCCCC1C(=O)OC1CCC (stereo not shown) [VM025, 3-Decyl-4-propyloxetan-2-one]",> 125 µg/mL
6,"CCCCCCCC/C=C\CCCCCCCCC1C(=O)OC1CCC (stereo not shown) [VM028, (Z)-3-(Octadec-9-en-1-yl)-4-propyloxetan-2-one]",> 125 µg/mL
7,"C#CCCC1OC(=O)C1CCCCCCCC/C=C\CCCCCCCC (stereo not shown) [VM035p, (Z)-4-(But-3-yn-1-yl)-3-(octadec-9-en-1-yl)oxetan-2-one]",> 125 µg/mL
8,"CCCCCCCC/C=C\CCCCCCC1(F)C(=O)OC1CCC (stereo not shown) [VM042, (Z)-3-Fluoro-3-(hexadec-7-en-1-yl)-4-propyloxetan-2-one]",> 125 µg/mL
9,"CCCCCCCCCCCCC1(F)C(=O)OC1CCC (stereo not shown) [VM044, 3-Dodecyl-3-fluoro-4-propyloxetan-2-one]",> 125 µg/mL
10,"CCCCCCCCOCCCCCCCCC1C(=O)OC1CCC (stereo not shown) [VM045, 3-(8-(Octyloxy)octyl)-4-propyloxetan-2-one]",> 125 µg/mL
11,"CCCCCCCCOCCCCCCCCC1(F)C(=O)OC1CCC (stereo not shown) [VM046, 3-Fluoro-3-(8-(octyloxy)octyl)-4-propyloxetan-2-one]",> 125 µg/mL
12,"CCCCCCNC(=O)CCCCCCCC1C(=O)OC1CCC (stereo not shown) [VM047, N-Hexyl-8-(2-oxo-4-propyloxetan-3-yl)octanamide]",> 125 µg/mL
13,"CCCCCCCC(=O)NCCCCCCC1C(=O)OC1CCC (stereo not shown) [VM048, N-(6-(2-Oxo-4-propyloxetan-3-yl)hexyl)octanamide]",> 125 µg/mL
14,"C#CCCCC1C(=O)OC1CCC (stereo not shown) [VM049p, 3-(Pent-4-yn-1-yl)-4-propyloxetan-2-one]",68.1 ± 3.1 µg/mL
15,"C#CCCCCCCCCCC1C(=O)OC1CCC (stereo not shown) [VM051p, 4-Propyl-3-(undec-10-yn-1-yl)oxetan-2-one]",> 125 µg/mL
16,"C#CCCC1OC(=O)C1CCCCCCCCCCCC (stereo not shown) [VM054p, 4-(But-3-yn-1-yl)-3-dodecyloxetan-2-one]",> 125 µg/mL
17,"CCCCCCCCCCCCC1C(=O)NC1CCC (stereo not shown) [VM056, 3-Dodecyl-4-propylazetidin-2-one]",30.6 ± 1.1 µg/mL
18,"CCCCCCCCC1C(=O)NC1CCC (stereo not shown) [VM058, 3-Octyl-4-propylazetidin-2-one]",40.1 ± 0.6 µg/mL
